In patent publication US7138361B2, “Herbicidal heterocycles” (E. I. du Pont de Nemours and Company, priority 2000, dated 2006):

What was measured:
Assay in all cases: Test C preemergence
Type in all cases: in vivo
Nightshade [1] = system: Nightshade
Sunflower = system: Sunflower
[2] = system: Surinam grass (Brachiaria decumbens)
Procedure, shortened: (§1)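 Pre- and postemergence treatments used a non-phytotoxic solvent/surfactant formulation; post-treated plants measured 2 to 18 cm. Greenhouse hold 12–14 d; % control estimated visually relative to controls.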

[3] = system: bermudagrass (Cynodon dactylon)
Procedure, shortened: as §1

[4] = system: cocklebur (Xanthium strumarium)
Procedure, shortened: as §1

[5] = system: common ragweed (Ambrosia elatior)
Procedure, shortened: as §1

corn (Zea mays) = system: corn (Zea mays)
Procedure, shortened: as §1

[6] = system: crabgrass (Digitaria sanguinalis)
Procedure, shortened: as §1

[7] = system: giant foxtail (Setaria faberii)
Procedure, shortened: as §1

[8] = system: goosegrass (Eleusine indica)
Procedure, shortened: as §1

[9] = system: johnsongrass (Sorghum halepense)
Procedure, shortened: as §1

kochia (Kochia scoparia) = system: kochia (Kochia scoparia)
Procedure, shortened: as §1

[10] = system: lambsquarters (Chenopodium album)
Procedure, shortened: as §1

[11] = system: morningglory (Ipomoea hederacea)
Procedure, shortened: as §1

[12] = system: pigweed (Amaranthus retroflexus)
Procedure, shortened: as §1

soybean (Glycine max) = system: soybean (Glycine max)
Procedure, shortened: as §1

[13] = system: velvetleaf (Abutilon theophrasti)
Procedure, shortened: as §1

[14] = system: woolly cupgrass (Eriochloa villosa)
Procedure, shortened: as §1

[15] = system: yellow nutsedge (Cyperus esculentus)
Procedure, shortened: as §1

Nightshade [16] = details: Rate 250 g/ha, visual evaluation after 12 to 14 days
[17] = Rate 62 g/ha, scale 0 to 100, 0 no effect, 100 complete control
[18] = Preemergence, Rate 500 g/ha, scale 0 to 100
[19] = preemergence, Rate 250 g/ha, visual evaluation after 12 to 14 days
[20] = preemergence, Rate 125 g/ha, scale 0 to 100, 0 no effect, 100 complete control

O=C1C(n2ccc(C3CCC3)n2)SCN1c1cccc(OC(F)(F)F)c1 (stereo not shown) [Compound 38]
Plant response rating, Nightshade (Nightshade [1]; [17]): 0
Plant response rating, Nightshade (Nightshade [1]; Rate 125 g/ha, scale 0 to 100, 0 no effect, 100 complete control): 0
Plant response rating, Nightshade (Nightshade [1]; Rate 500 g/ha, scale 0 to 100): 90
Plant response rating, Sunflower (Sunflower; [17]): 0
Plant response rating, Sunflower (Sunflower; Rate 500 g/ha, scale 0 to 100): 60
Plant response rating, Surinam grass [2, 18]: 90
Plant response rating, Surinam grass [2, 17]: 0
Plant response rating (0 to 100), Surinam grass [2, 19]: 0
Plant response rating, Surinam grass [2, 20]: 0
Plant response rating, Bermudagrass [3, 18]: 100
Plant response rating, Bermudagrass [3, 17]: 60
Plant response rating (0 to 100 where 0 is no effect and 100 is complete control), Bermudagrass [3, 19]: 100
Plant response rating, Bermudagrass [3, 20]: 90
Plant response rating, Cocklebur [4, 18]: 60
Plant response rating, Cocklebur [4, 17]: 0
Plant response rating (0 to 100), Cocklebur [4, 19]: 20
Plant response rating, Cocklebur [4, 20]: 0
Plant response rating, Ragweed, Common [5, 18]: 100
Plant response rating, Ragweed, Common [5, 17]: 0
Plant response rating (0 to 100), Ragweed, Common [5, 19]: 40
Plant response rating, Ragweed, Common [5, 20]: 20
Plant response rating, Corn (corn (Zea mays); [18]): 0
Plant response rating, Corn (corn (Zea mays); [17]): 0
Plant response rating (0 to 100), Corn (corn (Zea mays); [19]): 0
Plant response rating, Corn (corn (Zea mays); [20]): 0
Plant response rating, Crabgrass [6, 18]: 100
Plant response rating, Crabgrass [6, 17]: 90
Plant response rating (0 to 100), Crabgrass [6, 19]: 100
Plant response rating, Crabgrass [6, 20]: 100
Plant response rating, Foxtail, Giant [7, 18]: 100
Plant response rating, Foxtail, Giant [7, 17]: 80
Plant response rating (0 to 100), Foxtail, Giant [7, 19]: 100
Plant response rating, Foxtail, Giant [7, 20]: 0
Plant response rating, Goosegrass [8, 18]: 100
Plant response rating, Goosegrass [8, 17]: 80
Plant response rating (0 to 100), Goosegrass [8, 19]: 100
Plant response rating, Goosegrass [8, 20]: 90
Plant response rating, Johnsongrass [9, 18]: 90
Plant response rating, Johnsongrass [9, 17]: 40
Plant response rating (0 to 100), Johnsongrass [9, 19]: 90
Plant response rating, Johnsongrass [9, 20]: 50
Plant response rating, Kochia (kochia (Kochia scoparia); [18]): 100
Plant response rating, Kochia (kochia (Kochia scoparia); [17]): 30
Plant response rating (0 to 100), Kochia (kochia (Kochia scoparia); [19]): 90
Plant response rating, Kochia (kochia (Kochia scoparia); [20]): 70
Plant response rating, Lambsquarters [10, 18]: 100
Plant response rating, Lambsquarters [10, 17]: 90
Plant response rating (0 to 100), Lambsquarters [10, 19]: 100
Plant response rating, Lambsquarters [10, 20]: 100
Plant response rating, Morningglory [11, 18]: 0
Plant response rating (0 to 100), Morningglory [11, 19]: 0
Plant response rating, Morningglory [11, 20]: 0
Plant response rating, Pigweed [12, 18]: 30
Plant response rating, Pigweed [12, 17]: 0
Plant response rating (0 to 100), Pigweed [12, 19]: 0
Plant response rating, Pigweed [12, 20]: 0
Plant response rating, Soybean (soybean (Glycine max); [18]): 0
Plant response rating, Soybean (soybean (Glycine max); [17]): 0
Plant response rating (0 to 100), Soybean (soybean (Glycine max); [19]): 0
Plant response rating, Soybean (soybean (Glycine max); [20]): 0
Plant response rating, Velvetleaf [13, 18]: 20
Plant response rating, Velvetleaf [13, 17]: 0
Plant response rating (0 to 100), Velvetleaf [13, 19]: 20
Plant response rating, Velvetleaf [13, 20]: 0
Plant response rating, Cupgrass, Woolly [14, 18]: 90
Plant response rating, Cupgrass, Woolly [14, 17]: 0
Plant response rating (0 to 100), Cupgrass, Woolly [14, 19]: 0
Plant response rating, Cupgrass, Woolly [14, 20]: 0
Plant response rating, Nutsedge [15, 18]: 70
Plant response rating, Nutsedge [15, 17]: 0
Plant response rating (0 to 100), Nutsedge [15, 19]: 0
Plant response rating, Nutsedge [15, 20]: 0
Plant response rating (0 to 100), Nightshade (Nightshade [16]): 60
